Results published in patent US20120015399A1, “FLUORESCENT SOLVATOCHROMIC PIGMENT” (National University Corporation Hokkaido University, priority 2009, published 2012).

Key:
[1] = Absorption spectra of thiophene derivatives in solvents of different polarity; format: physicochemical; conditions: for Molar absorption coefficient: at maximum absorption wavelength
Description: (§1) In the present Example, the thiophene derivatives (Compounds 3 to 6) obtained in Synthesis Examples 1 and 2 were dissolved in a variety of solvents with different polarity, and the absorption and the fluorescent spectra were measured.
Now, the solvent polarity ET(30) (kcal/mole) was obtained by dissolving the betaine dye of the following formula that is a light absorbing solvatochromic dye in each solvent and incorporating the maximum absorption wavelength, λ (nm), into the equation ET(30)=28591/λ.
The thiophene derivative solutions were prepared by using a standard solvent for spectral measurement (Wako Pure Chemical Industries, Ltd.) in concentrations of from […] to 1.2×10^−5M, and absorptions were measured with a visible/ultraviolet spectrophotometer (V-560 UV/VIS Spectrophotometer manufactured by JASCO Corporation). The maximum absorption wavelength (nm) is shown in Table 2, and the molar absorption coefficient (mol^−1cm^−1) at the maximum absorption wavelength is shown in Table 3. The numbers in the tables indicate compound numbers.

[2] = Fluorescence spectra of thiophene derivatives in solvents of different polarity; format: physicochemical
Description: as §1
Next, fluorescence spectra of the thiophene derivatives were measured. The fluorescence spectra were measured using the same samples used for the absorption spectra and using a fluorescence spectrophotometer (F-4500 manufactured by Hitachi Ltd.)
The numbers in the table indicate compound numbers.

[3] = Fluorescence colour in aqueous synthetic detergent solutions of different pH; format: physicochemical; conditions: blue light 450 nm
Description: In the present Example, Compound 6 was dissolved in aqueous synthetic detergent solutions having different pH values and the fluorescence was measured.
Compound 6 (0.1 g each) obtained in Synthesis Example 2 was placed in three test tubes, and 10 ml each of deionized water and one drop of weakly acidic “Biore” (liquid detergent of Kao Corporation), “COOP K Soft” (liquid detergent of Cope Green K.K.) or “My Pet” (liquid detergent of Kao Corporation) were added. Aqueous solutions of Compound 6 were obtained by dissolving the compound using ultrasonic irradiation. The solutions were irradiated with blue light (450 nm) using a full color LED flash light (MFL 143-FB manufactured by Anteya Technology Corporation). The fluorescent color observed was orange in a weakly acidic environment (pH=5), red in a neutral environment […] and crimson in a weakly alkaline environment (pH=8).

[4] = test system: human colon cancer cell T84; experiment: Staining of cultured cells, confocal laser fluorescence microscopy; format: cell-based
Description: In the present Example, Compound 7 was introduced into cultured human colon cancer cell T84 and its image was observed using a fluorescence microscope.
Human colon cancer cell T84 culture (cell stock-microbial stock-gene bank (ATCC) number CCL-248, supplied by Summit Pharmaceuticals International Corporation) in a sub-confluent state that had been cultured (37° C., 5% CO2) for two to four days in a glass bottom dish (35 mm, Matsunami Glass Ind., Ltd.) was washed with phosphoric acid buffered physiological saline solution. One hundred microliters of a DMSO solution of 2×10^−5 M of Compound 7 was added dropwise near the cells, and a reaction was allowed to occur for five minutes at room temperature. The cells were washed again using phosphoric acid buffered physiological saline solution and were immediately exposed to an argon laser (488 nm) to reach an excited state in the phosphoric acid buffered physiological saline solution. The response was observed using a confocal laser microscope (LSM510META manufactured by Carl Zeiss).
In the present Comparative Example, the compound shown below described in Reference 3 (Japanese Patent Application Public Disclosure No. 2008-291210) was used in place of Compound 7, and the fluorescence microscope images of the cultured human colon cancer cell T84 were examined in the manner described in Example 5.

[5] = test system: macrophage cells (RAW264); experiment: Staining of macrophage cells, confocal laser fluorescence microscopy; format: cell-based; conditions: stain solution in calf serum/D-MEM 1:9, fifteen minutes, 37° C., argon laser 488 nm, FIG. 9
Description: In the present Example, macrophage cells were stained using the pyridinium derivatives shown in Table 1 and the differences in cell staining were compared in order to investigate the effects of the alkyl chain lengths in R^7 and R^8.
Several micrograms of each pyridinium derivative (Compounds 10 and 21 to 23) were added to 10 milliliters of a liquid medium obtained by mixing calf serum and D-MEM base medium in a 1:9 ratio. The mixtures were left standing in a refrigerator overnight to dissolve the solids. 5 milliliters of the supernatant solutions were removed the next day and were used as cell staining solutions after filtering the solutions through sterilizing membrane filters with a pore diameter of […] p.m.
The macrophage cells (RAW264 of ATCC Co., Ltd.) were floated in HydroCell dishes manufactured by Cell Seed Co., Ltd. using a liquid culture obtained by mixing calf serum and D-MEM base medium in a 1:9 ratio.
The media were removed from the glass bottom dishes on which the RAW264 cells were supported, and 0.2 ml of each stain solution was added. The cells were stained by leaving the dish standing for fifteen minutes in a CO2 incubator at 37° C. The stain solutions were subsequently removed, and the media were exchanged three times using a liquid medium obtained by mixing calf serum and D-MEM base medium in 1:9 ratio. […] The results are shown in terms of fluorescence microscopic images (FIG. 9).

[6] = Fluorescence emission in water in the presence of additives (lecithin, β-cyclodextrin, Triton X-100, CTAB, SDS); format: physicochemical; conditions: additives in deionized water, excitation 488 nm, FIG. 5
Description: After adding 5 milliliters of deionized water, the mixtures were sonicated with ultrasound for 20 seconds. The supernatant solution was irradiated with light at 488 nm, and the light emitted was measured using a fluorescence spectrophotometer (F-4500). […] After adding 5 milliliters of deionized water, the mixtures were sonicated with ultrasound for 20 seconds. The supernatant solution was irradiated with light at 450 nm, and the light emitted was measured using a fluorescence spectrophotometer (F-4500).

[7] = test system: human fetus kidney-derived HEK293 cells; experiment: Staining of HEK293 cells, location of dye and emitted light wavelength; format: cell-based; conditions: stain solution in calf serum/D-MEM 1:9, fifteen minutes, 37° C., argon laser 488 nm, FIG. 10
Description: In the present Example, human fetus kidney-derived HEK293 cells were stained using Compound 10, and the location of the dye and emitted light wavelength were examined.
Several micrograms of Compound 10 was added to 10 milliliters of a liquid medium obtained by mixing calf serum and D-MEM base medium in a 1:9 ratio. The mixture was left standing in a refrigerator overnight to dissolve the solids. 5 milliliters of the supernatant solution was removed the next day and was used as a cell staining solution after filtering the solution through a sterilizing membrane filter with a pore diameter of […]
The human fetus kidney-derived cells HEK293 (Riken Cell Bank) were cultured in a five milliliter culture flask using a liquid culture obtained by mixing calf serum and D-MEM base medium in a 1:9 ratio. The solution was used to inoculate a glass bottom dish.
The medium was removed from the glass bottom dish on which the HEK293 cells were supported, and 0.2 ml of the stain solution was added. The cells were stained by leaving the dish standing for fifteen minutes in a CO2 incubator at 37° C. The stain solution was subsequently removed, and the medium was exchanged three times using a liquid medium obtained by mixing calf serum and D-MEM base medium in a 1:9 ratio.

[8] = 1,4-Dioxane, solvent polarity ET(30) 36.0
[9] = Acetone, solvent polarity ET(30) 42.2
[10] = DMSO, solvent polarity ET(30) 45.1
[11] = Comparative Example 1, blue diode laser 405 nm, FIG. 11

SMILES: CCCCCCN(CCCCCC)c1ccc(-c2ccc(-c3cc[n+](C)cc3)s2)cc1.[I-] [Compound 6, 4-[5-(4-dihexylamino)phenyl]thiophene-2-yl-1-methylpyridinium iodide]
- Excitation by commonly encountered argon lasers (488 nm) [1]: could be efficiently excited
- Maximum absorption wavelength [1, 8]: 490 nm
- Maximum absorption wavelength [1, 9]: 501 nm
- Maximum absorption wavelength [1, 10]: 497 nm
- Molar absorption coefficient ([1]; 1,4-Dioxane, ET(30) 36.0): 26,000 mol^−1cm^−1
- Molar absorption coefficient ([1]; Acetone, ET(30) 42.2): 36,000 mol^−1cm^−1
- Molar absorption coefficient ([1]; DMSO, ET(30) 45.1): 36,000 mol^−1cm^−1
- Maximum fluorescence emission wavelength ([2]; 1,4-Dioxane, ET(30) 36.0): 568 nm
- Maximum fluorescence emission wavelength ([2]; Acetone, ET(30) 42.2): 639 nm
- Maximum fluorescence emission wavelength ([2]; DMSO, ET(30) 45.1): 653 nm
- Absorption and emission wavelengths, compared ([2]; versus Compounds 3 to 5): significantly longer absorption and emission wavelengths than Compounds 3 to 5
- Fluorescent color observed ([3]; neutral environment (pH=6)): red
- Fluorescent color observed ([3]; weakly acidic environment (pH=5)): orange
- Fluorescent color observed ([3]; weakly alkaline environment (pH=8)): crimson

SMILES: CCCCCCN(CCCCCC)c1ccc(-c2ccc(-c3ncccn3)s2)cc1 [Compound 5, N,N-dihexyl-4-[5-(pyrimidine-2-yl)thiophene-2-yl]aniline]
- Maximum absorption wavelength [1, 8]: 395 nm
- Maximum absorption wavelength [1, 9]: 395 nm
- Maximum absorption wavelength [1, 10]: 406 nm
- Molar absorption coefficient ([1]; 1,4-Dioxane, ET(30) 36.0): 33,000 mol^−1cm^−1
- Molar absorption coefficient ([1]; Acetone, ET(30) 42.2): 33,000 mol^−1cm^−1
- Molar absorption coefficient ([1]; DMSO, ET(30) 45.1): 31,000 mol^−1cm^−1
- Maximum fluorescence emission wavelength ([2]; 1,4-Dioxane, ET(30) 36.0): 472 nm
- Maximum fluorescence emission wavelength ([2]; Acetone, ET(30) 42.2): 507 nm
- Maximum fluorescence emission wavelength ([2]; DMSO, ET(30) 45.1): 522 nm

SMILES: CN(C)c1ccc(-c2ccc(-c3ccc(S(=O)(=O)OCC(C)(C)C)cc3)s2)cc1 [reference compound]
- Cell staining [4, 11]: the cell membrane was selectively labeled with fluorescence
- Change of fluorescence wavelength between cell sections [4, 11]: remained almost unchanged

SMILES: CCCCN(CCCC)c1ccc(-c2ccc(-c3cc[n+](C)cc3)s2)cc1.O=S(=O)([O-])C(F)(F)F [Compound 22, 4-[5-(4-dibutylamino)phenyl]thiophene-2-O-1-methylpyridinium trifluoromethane sulfonate]
- Cell staining pattern [5]: the cell membrane and mitochondria were selectively stained

SMILES: CCCCCCN(CCCCCC)c1ccc(-c2ccc(-c3cc[n+](C)cc3)s2)cc1.F[B-](F)(F)F [Compound 7, 4-[5-(4-dihexylamino)phenyl]thiophene-2-yl-1-methylpyridinium tetrafluoroborate]
- Cell staining ([4]; 2×10^−5 M in DMSO, five minutes, room temperature, argon laser 488 nm, FIG. 7): cell membranes of colon cancer cells T84 are stained
- Laser caused fading ([4]; confocal laser microscope, conditions of the experiment): did not undergo laser caused fading

SMILES: CCCCCCN(CCCCCC)c1ccc(-c2ccc(-c3cc[n+](C)cc3)s2)cc1.O=S(=O)([O-])C(F)(F)F [Compound 10, {4-[5-(4-dihexylamino)phenyl]thiophene-2-yl}-1-methylpyridinium trifluoromethane sulfonate]
- Fluorescence wavelength response to local environment [6]: respond sensitively to the local environment in terms of fluorescence wavelength
- Cell staining pattern [5]: the cell membrane and mitochondria were selectively stained
- Emitted light color by location in cell [7]: different for the cell membrane (1 in the figure) and mitochondria

SMILES: CCCCCCN(CCCCCC)c1ccc(-c2ccc(-c3ccccn3)s2)cc1 [Compound 4, N,N-dihexyl-4-[5-(pyridine-2-yl)thiophene-2-yl]aniline]
- Maximum absorption wavelength [1, 8]: 387 nm
- Maximum absorption wavelength [1, 9]: 385 nm
- Maximum absorption wavelength [1, 10]: 395 nm
- Molar absorption coefficient ([1]; 1,4-Dioxane, ET(30) 36.0): 33,000 mol^−1cm^−1
- Molar absorption coefficient ([1]; Acetone, ET(30) 42.2): 33,000 mol^−1cm^−1
- Molar absorption coefficient ([1]; DMSO, ET(30) 45.1): 31,000 mol^−1cm^−1
- Maximum fluorescence emission wavelength ([2]; 1,4-Dioxane, ET(30) 36.0): 459 nm
- Maximum fluorescence emission wavelength ([2]; Acetone, ET(30) 42.2): 488 nm
- Maximum fluorescence emission wavelength ([2]; DMSO, ET(30) 45.1): 507 nm

SMILES: CCCCCCN(CCCCCC)c1ccc(-c2ccc(-c3ccncc3)s2)cc1 [Compound 3, N,N-dihexyl-4-[5-(pyridine-4-yl)thiophene-2-yl]aniline]
- Maximum absorption wavelength [1, 8]: 389 nm
- Maximum absorption wavelength [1, 9]: 391 nm
- Maximum absorption wavelength [1, 10]: 401 nm
- Molar absorption coefficient ([1]; 1,4-Dioxane, ET(30) 36.0): 31,000 mol^−1cm^−1
- Molar absorption coefficient ([1]; Acetone, ET(30) 42.2): 33,000 mol^−1cm^−1
- Molar absorption coefficient ([1]; DMSO, ET(30) 45.1): 32,000 mol^−1cm^−1
- Maximum fluorescence emission wavelength ([2]; 1,4-Dioxane, ET(30) 36.0): 467 nm
- Maximum fluorescence emission wavelength ([2]; Acetone, ET(30) 42.2): 507 nm
- Maximum fluorescence emission wavelength ([2]; DMSO, ET(30) 45.1): 522 nm

SMILES: CCCCCCCCN(CCCCCCCC)c1ccc(-c2ccc(-c3cc[n+](C)cc3)s2)cc1.O=S(=O)([O-])C(F)(F)F [Compound 23]
- Cell staining pattern [5]: the entire cell was stained with fluorescence but the fluorescence intensity was low and the stain was not even

SMILES: CCN(CC)c1ccc(-c2ccc(-c3cc[n+](C)cc3)s2)cc1.O=S(=O)([O-])C(F)(F)F [Compound 21]
- Cell staining pattern [5]: Entire cells were stained with fluorescence
